Experimental data from US20230000995A1, “DOLASTATIN 10 ANALOG” (Ariel Scientific Innovations Ltd., priority 2020, published 2023).
Like-named read-outs stand apart in the source and are kept apart here. Where a SMILES comes first, the peptide text is derived from it. [ ]: non-standard residue; d: D form. Dolaproine = CO[C@@H]([C@@H]1CCCN1)[C@@H](C)C(=O)O; Dil = CC[C@H](C)[C@H](NC)[C@@H](CC(=O)O)OC; Phe(ol) = N[C@H](CO)Cc1ccccc1; NMeV = CN[C@H](C(=O)O)C(C)C

How the values were obtained:
[1] = tested on: HCT116 (human colon cancer cell line); experiment: In vitro cytotoxicity, XTT assay, 8 days incubation; assay type: cell-based; details: read-out: IC50 HC116 (8 days)
Excerpt: (§1) The exemplary dolastatin 10 analog, Dolas-Ol, was subjected to an in vitro assay to test its cytotoxicity towards two cancerous cell lines: WM266-4 (malignant melanoma cell line)) and HCT116 (human colon cancer cell line). The study was design to assess the activity of a dolastatin 10 analog, according to some embodiments of the present invention, compared to other dolastatin 10 derivatives known in the art, Auristatin F, Auristatin F-Ol and Dolastatin-CO2H.
(§2) All samples contained DMSO at final concentration<0.05%. Cells cultures were initiated in microplate wells at a concentration of 2-4×10^4 cells/well and the cells were allowed to adhere for 24 h incubation period. At this time the cells were washed, fresh medium containing different concentrations of the tested substances were added and the cells were incubated for additional 8 days. The medium was then removed, all the wells were washed with PBS and cultured for 24 hrs in fresh medium without drugs. The cells were washed again and given a fresh medium containing the XTT reagent and re-incubated for 2-4 h. Absorbence in the wells was measured with a TECAN Infinite M200 ELISA reader at both 480 and 680 nm e, the latter being the background absorbance. The absorbencies were normalized to the absorbance of cells grown in medium and solvent. All the tests were repeated three times in quadruplicates.

[2] = tested on: WM266-4 (malignant melanoma cell line); experiment: as above; assay type: cell-based; details: read-out: IC50 MW266 (8 days)
Excerpt: as §1, §2

[3] = tested on: tubulin; details: cited from earlier work
[4] = tested on: L1210 murine leukemia cells; details: L1210 murine leukemia cells in culture; read-out: IC50 value for cell growth; cited from earlier work
[5] = tested on: tubulin; details: purified tubulin in glutamate; read-out: IC50 for the polymerization of purified tubulin in glutamate; cited from earlier work
[6] = tested on: cell lines with overexpressed SSTR2 versus HEK; details: 1 μM; SSTR2 overexpressing cell lines versus HEK with low expression
Procedure: HC116, H1299 and TRAMP C2 cells that overexpressed SSTR2 were incubated for 3 hours with 1 μM doses of the conjugates, according to some embodiments of the present invention, and then the cells were washed and proceed for incubation for the following 8 days. At the end of incubation for 8 days, the metabolic activities of cells were measured using the XTT assay.

[7] = tested on: HC116 cells that overexpressed SSTR2; experiment: Growth inhibition by Dolas-Ol conjugates, XTT assay; assay type: cell-based; details: 1 μM, 3 hours exposure, then 8 days
Procedure: (§3) Table 2 presents the growth inhibition values of octreotide amide, conjugates 8b-d in the cell cultures calculated according to the concentration of 1 μM. The calculation for all values is provided relative to control 100% of GI (for all values, p<0.01).

[8] = tested on: TRAMP C2 cells that overexpressed SSTR2; experiment: as above; assay type: cell-based; details: 1 μM, 3 hours exposure, then 8 days
Procedure: as §3

[9] = tested on: H1299 cells that overexpressed SSTR2; experiment: as above; assay type: cell-based; details: 1 μM, 3 hours exposure, then 8 days
Procedure: as §3

[10] = tested on: HEK (low SSTR2 expression); experiment: Growth inhibition by Dolas-Ol conjugates, XTT assay, negative control cells; assay type: cell-based; details: 1 μM, 3 hours exposure, then 8 days
Procedure: as §3

CC[C@H](C)[C@@H]([C@@H](CC(=O)N1CCC[C@H]1[C@H](OC)[C@@H](C)C(=O)N[C@@H](Cc1ccccc1)C(=O)O)OC)N(C)C(=O)[C@@H](NC(=O)[C@@H](NC)C(C)C)C(C)C (H-[NMeV]V[Dil][Dolaproine]F-OH)
IC50 ([1]; Homo sapiens, HCT-116, 192 h): 18.27 ± 0.06 nM
IC50 ([2]; Homo sapiens, WM 266-4, 192 h): 15.59 ± 0.03 nM

CC[C@H](C)[C@@H]([C@@H](CC(=O)N1CCC[C@H]1[C@H](OC)[C@@H](C)C(=O)N[C@H](CO)Cc1ccccc1)OC)N(C)C(=O)[C@@H](NC(=O)[C@@H](NC)C(C)C)C(C)C [Auristatin F- O1] (H-[NMeV]V[Dil][Dolaproine][Phe(ol)])
IC50 ([1]; Homo sapiens, HCT-116, 192 h): 29.71 ± 0.04 nM
IC50 ([2]; Homo sapiens, WM 266-4, 192 h): 58.82 ± 0.05 nM

CC[C@H](C)[C@@H]([C@@H](CC(=O)N1CCC[C@H]1[C@H](OC)[C@@H](C)C(=O)N[C@@H](Cc1ccccc1)c1nccs1)OC)N(C)C(=O)[C@@H](NC(=O)[C@H](C(C)C)N(C)C)C(C)C [Dolastatin 10]
inhibition of the binding of radiolabeled vinblastine and vincristine to tubulin [3]: strongest inhibitor
IC50 [4]: 0.5 nM
IC50 [5]: 1200 nM

CC[C@H](C)[C@@H]([C@@H](CC(=O)N1CCC[C@H]1[C@H](OC)[C@@H](C)C(=O)N[C@@H](Cc1ccccc1)c1nc(C(=O)O)cs1)OC)N(C)C(=O)[C@@H](NC(=O)[C@H](C(C)C)N(C)C)C(C)C [Dolastatin- CO2H]
IC50 ([1]; Homo sapiens, HCT-116, 192 h): 52.5 ± 0.03 nM
IC50 ([2]; Homo sapiens, WM 266-4, 192 h): 31.75 ± 0.02 nM

C[C@@H](O)[C@H](NC(=O)[C@@H]1CSSC[C@H](NC(=O)[C@H](N)Cc2ccccc2)C(=O)N[C@@H](Cc2ccccc2)C(=O)N[C@H](Cc2c[nH]c3ccccc23)C(=O)N[C@@H](CCCCN)C(=O)N[C@@H]([C@@H](C)O)C(=O)N1)C(N)=O [Octreotide amide]
cytotoxicity (in words) [6]: not cytotoxic
growth inhibition, HC116-8 days [7]: 6.1%
growth inhibition, TRAMP C2-8 days [8]: 6.5%
growth inhibition, H1299-8 days [9]: 8.4%
growth inhibition, HEK as negative control [10]: 7.9%

COc1cc2cc(c1Cl)N(C)C(=O)C[C@H](OC(=O)[C@H](C)N(C)C(C)=O)[C@]1(C)O[C@H]1[C@H](C)[C@@H]1C[C@@](O)(NC(=O)O1)[C@H](OC)/C=C/C=C(\C)C2 [maytansine]
IC50 [4]: 0.5 nM
IC50 [5]: 3500 nM

C=C(C)[C@@H]1NC(=O)[C@@H](NC)[C@@H](O)c2cc(Cl)c(O)c(c2)O[C@](C)(CC)[C@@H](C(=O)N2CC=C[C@H]2C(=O)N/C(C(=O)N/C(=C/C(=O)O)C(=O)O)=C(\C)CC)NC1=O [phomopsin A]
IC50 [4]: 7000 nM
IC50 [5]: 1400 nM

CO[C@@H](/C(C)=C/C=C/C(C)=C/c1coc(C)n1)[C@@H](C)[C@@H]1C[C@H](O)[C@@]2(C)O[C@@H]2/C=C/[C@@H](C)[C@H]2C[C@H](CC(=O)O2)C[C@@H]2O[C@H]2C(=O)O1 [rhizoxin]
IC50 [4]: 1 nM
IC50 [5]: 6800 nM

CC[C@]1(O)C[C@@H]2CN(CCc3c([nH]c4ccccc34)[C@@](C(=O)OC)(c3cc4c(cc3OC)N(C)[C@H]3[C@@](O)(C(=O)OC)[C@H](OC(C)=O)[C@]5(CC)C=CCN6CC[C@]43[C@@H]65)C2)C1 [vinblastine]
IC50 [4]: 20 nM

(2S)-2-((S)-2-(dimethylamino)-3-methylbutanamido)-N-((3R,4S,5S)-1-((2S)-2-((1R,2R)-3-((1-(5-(hydroxymethyl)thiazol-2-yl)-2-phenylethyl)amino)-1-methoxy-2-methyl-3-oxopropyl)pyrrolidin-1-yl)-3-methoxy-5-methyl-1-oxoheptan-4-yl)-N,3-dimethylbutanamide [Dolas-O1]
IC50 [1]: 3.67 ± 0.03 nM
IC50 [2]: 2.24 ± 0.03 nM
